Key:
Type in all cases: biochemical
B-Raf = biological target: T1, B-Raf (Homo sapiens, UniProt P15056); assay: AlphaScreen kinase assay, B-Raf; conditions: read-out: IC50, activity toward kinase B-Raf
T1 construct: purchased Upstate Biotechnology

B-Raf V600E = biological target: T2, B-Raf V600E (Homo sapiens, UniProt P15056, V600E); assay: AlphaScreen kinase assay, B-Raf V600E; conditions: read-out: IC50, activity toward kinase B-Raf V600E
T2 construct: P4254. pFastBacBD-CDC37 BRAF D437-K722-X, V600E; His6 with pFastBac HT leader (TEV site) (N); made in house; host or cells: Sf9 (baculovirus; chaperone CDC37 co-expressed)

Fak = biological target: T3, Fak (Homo sapiens, UniProt Q05397); assay: AlphaScreen kinase assay, Fak; conditions: read-out: IC50, activity toward kinase Fak
T3 construct: P1358.pFastBacHtb FAK S411-Q686-X; His6 with pFastBacHTb leader (TEV site) (N); made in house; host or cells: Sf9 (baculovirus)

FGFR1 = biological target: T4, FGFR1 (Homo sapiens, UniProt P11362, C488A/C584S); assay: AlphaScreen kinase assay, FGFR1; conditions: read-out: IC50, activity toward kinase FGFR
T4 construct: P1351.pET N6 BI-PTP FGFR A458-E765-X C488A, C584S; made in house; host or cells: E. coli (PTP1B co-expressed)

Fms = biological target: T5, Fms (Homo sapiens, UniProt P07333); assay: AlphaScreen kinase assay, Fms; conditions: read-out: IC50, activity toward kinase Fms
T5 construct: purchased Upstate Biotechnology

Kdr = biological target: T6, Kdr (Homo sapiens, UniProt P35968); assay: Z'-Lyte FRET kinase assay (Invitrogen), Kdr; conditions: read-out: IC50, activity toward kinase Kdr
T6 construct: purchased Invitrogen (assay run by Invitrogen)

Kit = biological target: T7, Kit (Homo sapiens, UniProt P10721); assay: AlphaScreen kinase assay, Kit; conditions: read-out: IC50, activity toward kinase Kit
T7 construct: P1332.N6 BI PTP KIT M552-K948-X COD; His6 (N); made in house; host or cells: E. coli (PTP1B co-expressed)

Ret = biological target: T8, Ret (Homo sapiens, UniProt P07949); assay: AlphaScreen kinase assay, Ret; conditions: read-out: IC50, activity toward kinase Ret
T8 construct: P1378.pET-SF BI-PTP RET H661-R1012 HIS; made in house
T8 sequence (P07949 with tags, fused parts or gaps): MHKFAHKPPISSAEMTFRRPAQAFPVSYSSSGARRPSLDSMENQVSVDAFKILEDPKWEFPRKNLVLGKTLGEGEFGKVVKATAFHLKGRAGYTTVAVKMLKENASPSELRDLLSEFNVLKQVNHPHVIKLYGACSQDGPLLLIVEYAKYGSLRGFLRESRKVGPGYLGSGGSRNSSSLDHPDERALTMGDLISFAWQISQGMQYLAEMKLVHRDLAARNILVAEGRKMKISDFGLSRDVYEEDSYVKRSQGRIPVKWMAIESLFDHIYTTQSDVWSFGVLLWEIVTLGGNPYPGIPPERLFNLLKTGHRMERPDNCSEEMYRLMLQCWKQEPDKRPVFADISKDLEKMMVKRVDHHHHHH

c-Raf-1 = biological target: T9, c-Raf-1 (Homo sapiens, UniProt P04049); assay: AlphaScreen kinase assay, c-Raf-1; conditions: read-out: IC50, activity toward kinase c-Raf-1
T9 construct: purchased Upstate Biotechnology

Src = biological target: T10, Src (Homo sapiens, UniProt P12931); assay: AlphaScreen kinase assay, Src; conditions: read-out: IC50, activity toward kinase Src
T10 construct: P1144. pET-N6 BI-PTP SRC V86-L536-X; made in house

Jnk1 = biological target: T11, Jnk1 (Homo sapiens, UniProt P45983); assay: AlphaScreen kinase assay, Jnk1; conditions: read-out: IC50, activity toward kinase Jnk1
T11 construct: purchased Upstate Biotechnology

Jnk3 = biological target: T12, Jnk3 (Homo sapiens, UniProt P53779); assay: AlphaScreen kinase assay, Jnk3; conditions: read-out: IC50, activity toward kinase Jnk3
T12 construct: purchased Upstate Biotechnology

Flt1 = biological target: T13, Flt1 (Homo sapiens, UniProt P17948); assay: AlphaScreen kinase assay, Flt1; conditions: read-out: IC50, activity toward kinase Flt1
T13 construct: P1826.pETN6 BI-PTP FLT1 M799-D1165-X WT; His6 (N); made in house; host or cells: E. coli (PTP1B co-expressed)
T13 sequence (P17948 with tags, fused parts or gaps): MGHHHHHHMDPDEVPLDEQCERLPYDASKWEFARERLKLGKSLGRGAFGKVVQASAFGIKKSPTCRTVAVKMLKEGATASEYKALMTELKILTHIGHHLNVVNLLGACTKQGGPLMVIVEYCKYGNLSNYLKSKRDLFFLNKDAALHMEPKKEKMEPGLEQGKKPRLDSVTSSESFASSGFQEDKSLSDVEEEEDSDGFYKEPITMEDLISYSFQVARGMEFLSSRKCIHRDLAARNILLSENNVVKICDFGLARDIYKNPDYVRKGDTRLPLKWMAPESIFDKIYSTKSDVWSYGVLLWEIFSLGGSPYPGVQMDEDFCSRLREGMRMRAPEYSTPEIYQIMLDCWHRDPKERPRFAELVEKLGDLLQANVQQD

T4 sequence (P11362 458-765 C488A/C584S): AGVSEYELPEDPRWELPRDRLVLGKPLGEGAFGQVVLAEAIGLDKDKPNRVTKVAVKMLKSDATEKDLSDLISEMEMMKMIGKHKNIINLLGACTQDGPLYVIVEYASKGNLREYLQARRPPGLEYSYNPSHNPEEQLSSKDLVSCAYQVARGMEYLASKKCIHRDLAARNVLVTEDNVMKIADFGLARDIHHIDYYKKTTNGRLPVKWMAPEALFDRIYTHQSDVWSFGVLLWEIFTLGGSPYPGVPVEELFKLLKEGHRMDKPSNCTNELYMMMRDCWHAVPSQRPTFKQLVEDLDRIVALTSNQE
T12 sequence (P53779 whole entry): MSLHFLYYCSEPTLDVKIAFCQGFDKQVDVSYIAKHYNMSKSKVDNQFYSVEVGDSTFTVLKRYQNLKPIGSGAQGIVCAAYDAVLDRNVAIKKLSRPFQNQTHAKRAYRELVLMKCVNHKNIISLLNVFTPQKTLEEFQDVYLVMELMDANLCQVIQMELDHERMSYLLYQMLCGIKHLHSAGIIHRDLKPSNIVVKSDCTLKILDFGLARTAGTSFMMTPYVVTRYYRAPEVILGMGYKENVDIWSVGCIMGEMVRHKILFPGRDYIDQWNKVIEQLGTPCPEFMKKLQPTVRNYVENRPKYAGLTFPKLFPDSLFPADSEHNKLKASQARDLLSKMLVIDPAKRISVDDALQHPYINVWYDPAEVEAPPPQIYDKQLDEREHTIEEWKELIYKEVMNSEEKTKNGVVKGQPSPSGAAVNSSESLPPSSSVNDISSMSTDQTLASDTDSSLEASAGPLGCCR
T11 sequence (P45983 whole entry): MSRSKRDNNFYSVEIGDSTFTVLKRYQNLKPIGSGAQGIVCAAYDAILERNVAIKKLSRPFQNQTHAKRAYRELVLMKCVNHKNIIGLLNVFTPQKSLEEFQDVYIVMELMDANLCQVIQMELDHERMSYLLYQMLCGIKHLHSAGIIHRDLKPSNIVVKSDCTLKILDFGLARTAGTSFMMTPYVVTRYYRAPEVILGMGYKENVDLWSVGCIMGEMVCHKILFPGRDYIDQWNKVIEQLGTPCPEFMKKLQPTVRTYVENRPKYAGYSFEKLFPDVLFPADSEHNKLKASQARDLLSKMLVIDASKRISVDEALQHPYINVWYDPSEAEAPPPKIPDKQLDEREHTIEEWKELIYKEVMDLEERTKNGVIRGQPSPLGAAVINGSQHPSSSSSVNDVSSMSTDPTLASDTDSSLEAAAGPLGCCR
T9 sequence (P04049 whole entry): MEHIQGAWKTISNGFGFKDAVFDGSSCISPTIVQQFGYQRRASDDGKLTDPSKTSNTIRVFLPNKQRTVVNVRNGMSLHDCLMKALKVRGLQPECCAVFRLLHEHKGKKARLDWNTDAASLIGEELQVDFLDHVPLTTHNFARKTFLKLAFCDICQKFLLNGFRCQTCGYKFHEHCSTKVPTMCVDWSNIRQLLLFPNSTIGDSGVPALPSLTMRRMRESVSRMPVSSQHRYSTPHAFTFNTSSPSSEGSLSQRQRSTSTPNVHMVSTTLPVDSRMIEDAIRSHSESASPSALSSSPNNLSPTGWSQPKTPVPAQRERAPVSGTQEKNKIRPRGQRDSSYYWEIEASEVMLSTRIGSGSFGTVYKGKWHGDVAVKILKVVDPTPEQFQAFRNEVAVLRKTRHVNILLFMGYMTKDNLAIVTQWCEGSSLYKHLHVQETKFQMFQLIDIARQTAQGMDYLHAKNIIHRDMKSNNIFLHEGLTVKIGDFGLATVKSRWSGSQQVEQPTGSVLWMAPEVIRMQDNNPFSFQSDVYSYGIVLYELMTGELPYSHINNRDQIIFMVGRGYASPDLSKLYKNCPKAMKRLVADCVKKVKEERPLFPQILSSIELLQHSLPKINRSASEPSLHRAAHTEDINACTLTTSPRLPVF
T10 sequence (P12931 with tags, fused parts or gaps): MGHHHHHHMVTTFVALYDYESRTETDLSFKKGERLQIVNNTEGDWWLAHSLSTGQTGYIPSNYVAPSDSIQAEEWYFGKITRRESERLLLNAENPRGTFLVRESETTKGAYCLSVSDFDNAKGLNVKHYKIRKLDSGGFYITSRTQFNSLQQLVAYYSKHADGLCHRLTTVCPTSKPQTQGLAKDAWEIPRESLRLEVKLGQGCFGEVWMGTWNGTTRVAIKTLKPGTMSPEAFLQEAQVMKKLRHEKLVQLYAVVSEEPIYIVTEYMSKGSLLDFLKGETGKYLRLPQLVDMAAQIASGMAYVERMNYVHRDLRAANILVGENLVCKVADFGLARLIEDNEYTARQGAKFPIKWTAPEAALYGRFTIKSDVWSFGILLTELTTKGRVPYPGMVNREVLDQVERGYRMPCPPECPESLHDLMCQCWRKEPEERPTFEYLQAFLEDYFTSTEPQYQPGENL
T1 sequence (P15056 whole entry): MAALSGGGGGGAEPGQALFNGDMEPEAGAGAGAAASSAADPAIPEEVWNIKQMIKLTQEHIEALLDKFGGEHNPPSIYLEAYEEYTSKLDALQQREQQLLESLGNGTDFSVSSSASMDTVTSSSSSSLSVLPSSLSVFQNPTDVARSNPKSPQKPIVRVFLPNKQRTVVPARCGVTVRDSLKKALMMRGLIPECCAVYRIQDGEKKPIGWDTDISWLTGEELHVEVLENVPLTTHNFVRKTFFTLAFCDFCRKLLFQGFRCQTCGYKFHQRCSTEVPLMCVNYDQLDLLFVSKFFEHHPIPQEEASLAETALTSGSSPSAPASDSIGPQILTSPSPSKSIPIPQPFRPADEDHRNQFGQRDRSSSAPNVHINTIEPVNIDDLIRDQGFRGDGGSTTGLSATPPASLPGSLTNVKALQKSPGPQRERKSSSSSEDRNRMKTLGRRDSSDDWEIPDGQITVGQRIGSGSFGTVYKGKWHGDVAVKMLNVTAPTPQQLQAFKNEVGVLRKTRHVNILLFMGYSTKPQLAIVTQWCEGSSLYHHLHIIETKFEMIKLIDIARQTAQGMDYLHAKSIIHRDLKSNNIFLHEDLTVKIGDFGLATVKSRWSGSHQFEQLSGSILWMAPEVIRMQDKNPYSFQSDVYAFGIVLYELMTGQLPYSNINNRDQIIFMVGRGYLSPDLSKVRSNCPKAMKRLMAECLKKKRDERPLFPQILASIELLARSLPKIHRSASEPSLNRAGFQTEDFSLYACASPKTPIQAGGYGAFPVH
T2 sequence (P15056 with tags, fused parts or gaps V600E): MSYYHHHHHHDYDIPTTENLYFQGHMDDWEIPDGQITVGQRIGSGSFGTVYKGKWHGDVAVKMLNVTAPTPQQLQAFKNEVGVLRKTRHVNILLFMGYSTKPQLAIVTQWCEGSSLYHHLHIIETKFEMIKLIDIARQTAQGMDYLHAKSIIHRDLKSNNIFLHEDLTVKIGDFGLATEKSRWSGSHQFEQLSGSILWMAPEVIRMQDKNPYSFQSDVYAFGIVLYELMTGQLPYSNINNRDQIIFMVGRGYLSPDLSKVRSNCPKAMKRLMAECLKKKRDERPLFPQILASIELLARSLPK
T5 sequence (P07333 20-972): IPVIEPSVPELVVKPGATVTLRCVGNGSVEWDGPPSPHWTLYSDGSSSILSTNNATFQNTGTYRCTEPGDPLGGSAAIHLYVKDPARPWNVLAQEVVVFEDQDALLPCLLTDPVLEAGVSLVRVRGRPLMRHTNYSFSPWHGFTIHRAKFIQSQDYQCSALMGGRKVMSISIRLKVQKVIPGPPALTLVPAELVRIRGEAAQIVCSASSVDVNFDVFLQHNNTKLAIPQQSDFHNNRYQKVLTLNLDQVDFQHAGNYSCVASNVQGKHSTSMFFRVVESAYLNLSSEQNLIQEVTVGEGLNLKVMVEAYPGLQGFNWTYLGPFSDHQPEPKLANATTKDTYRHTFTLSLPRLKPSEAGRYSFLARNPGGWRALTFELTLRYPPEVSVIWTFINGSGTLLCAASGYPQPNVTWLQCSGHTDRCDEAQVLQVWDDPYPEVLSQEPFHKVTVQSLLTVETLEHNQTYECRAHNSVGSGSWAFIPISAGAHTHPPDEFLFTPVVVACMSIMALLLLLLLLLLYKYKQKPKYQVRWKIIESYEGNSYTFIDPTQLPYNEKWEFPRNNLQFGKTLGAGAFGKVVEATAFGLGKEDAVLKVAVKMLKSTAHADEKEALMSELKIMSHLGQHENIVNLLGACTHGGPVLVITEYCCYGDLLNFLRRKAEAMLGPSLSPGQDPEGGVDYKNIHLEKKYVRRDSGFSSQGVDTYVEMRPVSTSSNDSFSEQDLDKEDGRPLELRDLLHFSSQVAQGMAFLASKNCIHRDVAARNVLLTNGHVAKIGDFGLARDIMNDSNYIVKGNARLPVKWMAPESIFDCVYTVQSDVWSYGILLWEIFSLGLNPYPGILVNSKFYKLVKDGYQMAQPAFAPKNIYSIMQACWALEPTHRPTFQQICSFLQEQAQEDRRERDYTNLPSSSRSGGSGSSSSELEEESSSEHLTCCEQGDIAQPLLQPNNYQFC
T3 sequence (Q05397 411-686): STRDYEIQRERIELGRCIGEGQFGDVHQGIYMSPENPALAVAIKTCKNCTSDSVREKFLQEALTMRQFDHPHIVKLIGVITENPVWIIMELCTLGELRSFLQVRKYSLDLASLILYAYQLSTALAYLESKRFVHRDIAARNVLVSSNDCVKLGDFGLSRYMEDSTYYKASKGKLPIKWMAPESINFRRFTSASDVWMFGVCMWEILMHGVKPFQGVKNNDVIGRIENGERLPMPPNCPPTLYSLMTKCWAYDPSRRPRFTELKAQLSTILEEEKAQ

Structure (SMILES) | IC50 (B-Raf) [µM] | IC50 (B-Raf V600E) [µM] | IC50 (Fak) [µM] | IC50 (FGFR1) [µM] | IC50 (Fms) [µM] | IC50 (Kdr) [µM] | IC50 (Kit) [µM] | IC50 (Ret) [µM] | IC50 (c-Raf-1) [µM] | IC50 (Src) [µM] | IC50 (Jnk1) [µM] | IC50 (Jnk3) [µM] | IC50 (Flt1) [µM]
COc1ccc(Cc2c[nH]c3ncc(-c4cccc(C(N)=O)c4)cc23)c(F)c1 [Compound P-1341] | ≤ 10 | ≤ 10 | ≤ 10 | ≤ 10 | ≤ 10 | – | ≤ 10 | – | – | – | – | – | –
c1cc2ccc(Nc3ccc(N4CCCCC4)cc3)nc2[nH]1 [Compound P-1359, (4-Piperidin-1-yl-phenyl)-(1H-pyrrolo[2,3-b]pyridin-6-yl)-amine] | – | – | ≤ 10 | – | – | – | – | – | – | – | ≤ 10 | ≤ 10 | –
CN(c1ccc(F)c(C(O)c2c[nH]c3ncc(-c4cccnc4)cc23)c1F)S(=O)(=O)c1ccc(C(F)(F)F)cc1 (stereo not drawn) [Compound P-1400] | – | – | ≤ 10 | – | ≤ 10 | – | ≤ 10 | – | – | – | ≤ 10 | ≤ 10 | –
O=[N+]([O-])c1cccc(Cc2c[nH]c3ncc(-c4cccnc4)cc23)c1 [Compound P-1402, 3-(3-nitro-benzyl)-5-pyridin-3-yl-1H-pyrrolo[2,3-b]pyridine] | – | ≤ 10 | ≤ 10 | ≤ 10 | ≤ 10 | – | ≤ 10 | – | – | – | ≤ 10 | – | –
Clc1cccc(Cl)c1Cc1c[nH]c2ncc(-c3cccnc3)cc12 [Compound P-1478, 3-(2,6-Dichloro-benzyl)-5-pyridin-3-yl-1H-pyrrolo[2,3-b]pyridine] | – | ≤ 10 | ≤ 10 | ≤ 10 | ≤ 10 | – | ≤ 10 | – | – | ≤ 10 | – | – | –
FC(F)(F)Oc1ccc(Nc2c[nH]c3ncccc23)cc1 [Compound P-1492, (1H-Pyrrolo[2,3-b]pyridin-3-yl)-(4-trifluoromethoxy-phenyl)-amine] | – | – | ≤ 10 | – | ≤ 10 | – | – | – | – | – | – | – | ≤ 10
c1ccc(Oc2ccc(Nc3c[nH]c4ncccc34)cc2)cc1 [Compound P-1495, (4-Phenoxy-phenyl)-(1H-pyrrolo[2,3-b]pyridin-3-yl)-amine] | – | ≤ 10 | ≤ 10 | – | ≤ 10 | – | ≤ 10 | – | – | ≤ 10 | – | – | ≤ 10
Clc1cc(Cl)cc(Nc2c[nH]c3ncccc23)c1 [Compound P-1502, (3,5-Dichloro-phenyl)-(1H-pyrrolo[2,3-b]pyridin-3-yl)-amine] | – | – | ≤ 10 | – | ≤ 10 | – | ≤ 10 | – | – | – | – | – | ≤ 10

The remaining lines, values ahead:

IC50 (B-Raf) [µM] | IC50 (B-Raf V600E) [µM] | IC50 (Fak) [µM] | IC50 (FGFR1) [µM] | IC50 (Fms) [µM] | IC50 (Kdr) [µM] | IC50 (Kit) [µM] | IC50 (Ret) [µM] | IC50 (c-Raf-1) [µM] | IC50 (Src) [µM] | IC50 (Jnk1) [µM] | IC50 (Jnk3) [µM] | IC50 (Flt1) [µM] | Structure (SMILES)
≤ 10 | ≤ 10 | ≤ 10 | ≤ 10 | ≤ 10 | ≤ 10 | ≤ 10 | ≤ 10 | – | – | – | – | – | O=C(c1ccccc1F)c1c[nH]c2ncc(Br)cc12 [Compound P-0293]
≤ 10 | ≤ 10 | ≤ 10 | ≤ 10 | – | – | ≤ 10 | – | ≤ 10 | ≤ 10 | – | – | – | CCCS(=O)(=O)Nc1ccc(F)c(C(=O)c2c[nH]c3ncc(-c4ccc(N(C)C)cc4)cc23)c1F [Compound P-0889, Propane-1-sulfonic acid {3-[5-(4-dimethylamino-phenyl)-1H-pyrrolo[2,3-b]pyridine-3-carbonyl]-2,4-difluoro-phenyl}-amide]
≤ 10 | ≤ 10 | ≤ 10 | ≤ 10 | ≤ 10 | – | ≤ 10 | – | ≤ 10 | ≤ 10 | – | – | – | CCCS(=O)(=O)Nc1ccc(F)c(C(=O)c2c[nH]c3ncc(C)cc23)c1F [Compound P-1249]
≤ 10 | ≤ 10 | ≤ 10 | ≤ 10 | ≤ 10 | – | ≤ 10 | – | – | ≤ 10 | – | – | – | CCCCS(=O)(=O)Nc1ccc(F)c(C(=O)c2c[nH]c3ncc(Br)cc23)c1F [Compound P-1263, Butane-1-sulfonic acid [3-(5-bromo-1H-pyrrolo[2,3-b]pyridine-3-carbonyl)-2,4-difluoro-phenyl]-amide]
≤ 10 | ≤ 10 | ≤ 10 | ≤ 10 | ≤ 10 | – | ≤ 10 | – | – | ≤ 10 | – | – | – | CCCCS(=O)(=O)Nc1ccc(F)c(C(=O)c2c[nH]c3ncc(OC)cc23)c1F [Compound P-1264, Butane-1-sulfonic acid [2,4-difluoro-3-(5-methoxy-1H-pyrrolo[2,3-b]pyridine-3-carbonyl)-phenyl]-amide]
≤ 10 | ≤ 10 | ≤ 10 | ≤ 10 | ≤ 10 | – | ≤ 10 | – | ≤ 10 | ≤ 10 | – | – | – | COc1ccc(F)c(C(=O)c2c[nH]c3ncc(-c4ccccc4)cc23)c1F [Compound P-1387, (2,6-Difluoro-3-methoxy-phenyl)-(5-phenyl-1H-pyrrolo[2,3-b]pyridin-3-yl)-methanone]
≤ 10 | ≤ 10 | ≤ 10 | ≤ 10 | ≤ 10 | – | ≤ 10 | – | ≤ 10 | ≤ 10 | – | – | – | COc1ccc(F)c(C(=O)c2c[nH]c3ncc(-c4cccc(NS(C)(=O)=O)c4)cc23)c1F [Compound P-1391, N-{3-[3-(2,6-Difluoro-3-methoxy-benzoyl)-1H-pyrrolo[2,3-b]pyridin-5-yl]-phenyl}-methanesulfonamide]
– | ≤ 10 | ≤ 10 | ≤ 10 | – | – | ≤ 10 | – | ≤ 10 | ≤ 10 | – | – | – | CCCS(=O)(=O)Nc1ccc(F)c(Cc2c[nH]c3ncc(Cl)cc23)c1F [Compound P-1396]
≤ 10 | ≤ 10 | ≤ 10 | ≤ 10 | ≤ 10 | – | ≤ 10 | – | ≤ 10 | – | – | – | – | COCCOc1ccc(F)c(C(O)c2c[nH]c3ncc(Br)cc23)c1F (stereo not drawn) [Compound P-1452]
≤ 10 | ≤ 10 | ≤ 10 | ≤ 10 | ≤ 10 | – | ≤ 10 | – | ≤ 10 | – | ≤ 10 | – | – | COCCOc1ccc(F)c(C(=O)c2c[nH]c3ncc(-c4cccnc4)cc23)c1F [Compound P-1456, [2,6-Difluoro-3-(2-methoxy-ethoxy)-phenyl]-(5-pyridin-3-yl-1H-pyrrolo[2,3-b]pyridin-3-yl)-methanone]
≤ 10 | ≤ 10 | ≤ 10 | – | ≤ 10 | – | ≤ 10 | – | – | ≤ 10 | – | – | ≤ 10 | O=C(Nc1ccc(F)c(C(=O)c2c[nH]c3ncc(Br)cc23)c1F)OCc1ccccc1 [Compound P-1457]
≤ 10 | ≤ 10 | ≤ 10 | ≤ 10 | ≤ 10 | – | ≤ 10 | – | ≤ 10 | – | ≤ 10 | ≤ 10 | – | COCCOc1ccc(F)c(Cc2c[nH]c3ncc(-c4cccnc4)cc23)c1F [Compound P-1458]
